Results as given in patent US20180141991A1, “METHODS AND POLYPEPTIDES FOR MODULATION OF IMMUNORESPONSE” (Mackay Medical Foundation The Presbyterian Church In Taiwan …, priority 2015, published 2018).

What was measured:
[1] = test system: PD-L1 on monocytes; assay: Surface expression of PD-L1 on primed monocytes, flow cytometry; type: cell-based, human; settings: polypeptide 10 μg/mL, 24 hours, MFI relative to medium control (FIG. 3B)
Procedure: (§1) (A) Monocytes were incubated with rsTLT-1 (10 μg/mL) for 3 days. At the indicated time point, the cells were harvested and the HLA-DR and PD-L1 molecules were analyzed using flow cytometry. […] (B) Monocytes were cultured with different concentrations of rsTLT-1 for 2 days. The cells were then harvested and the HLA-DR and PD-L1 molecules were analyzed using flow cytometry. Surface molecule expression is presented as the mean fluorescence intensity (MFI) relative to each day that the cells were treated with the control medium (dashed line). Values are presented as mean±SEM from 3 independent experiments.
(A) depicts structural characteristics of extracellular domain of TLT-1 and designed TLT-1 polypeptides. […] The cells were then harvested and the PD-L1 molecules were analyzed using flow cytometry. Surface molecule expression is presented as the MFI relative to each day that the cells were treated with the medium control (dashed line).
White blood cell concentrates from healthy volunteers were obtained from the Taiwan Blood Service Foundation (Taipei, Taiwan). Written informed consent was obtained for participation in the study, which was approved by the Institutional Review Board of the MacKay Memorial Hospital. Human monocytes were isolated as previously described. […]

[2] = test system: HLA-DR on monocytes; assay: Surface expression of HLA-DR on primed monocytes, flow cytometry; type: cell-based, human; settings: polypeptide 10 μg/ml, 48 hours of incubation (FIG. 4)
Procedure: as §1
Monocytes were cultured with 10 μg/ml TLT-1 15-63 polypeptide and 10 μg/ml rsTLT-1 for 2 days. The cells were then harvested and the HLA-DR molecules were analyzed using flow cytometry. Surface molecule expression is presented as the MFI relative to each day that the cells were treated with the medium control (dashed line).
White blood cell concentrates from healthy volunteers were obtained from the Taiwan Blood Service Foundation (Taipei, Taiwan). Written informed consent was obtained for participation in the study, which was approved by the Institutional Review Board of the MacKay Memorial Hospital. Human monocytes were isolated as previously described. In brief, peripheral blood mononuclear cells (PBMCs) were isolated using Ficoll-Paque Plus (GE Healthcare) gradient centrifugation. […]

## TLT-1 15-63: GQGIVGSLPEVLQAPVGSSILVQCHYRLQDVKAQKVWCRFLPEGCQPLV (SEQ ID NO: 7; same sequence as SEQ ID NO: 2) (Polypeptide name TLT-1 15-63)
[1]
  PD-L1 surface expression on monocytes: significantly increased
[2]
  HLA-DR surface expression on monocytes: decreased

## TLT-1 34-63: ILVQCHYRLQDVKAQKVWCRFLPEGCQPLV (SEQ ID NO: 9; same sequence as SEQ ID NO: 1) (Polypeptide name TLT-1 34-63)
[1]
  PD-L1 surface expression on monocytes: induced PD-L1 expression
